Like-named read-outs stand apart in the source and are kept apart here.
What was measured:
[1] = test system: G. lamblia strain ATCC 30957; test: Viability of Giardia lamblia trophozoite culture (trypan blue count); type: cell-based; details: for Inhibition of growth of G. lamblia parasite culture: concentration not given
Method: Viability analysis was performed on G. lamblia strain ATCC 30957 grown in TYI-S-33 medium supplemented with 10% fetal bovine serum (FBS) and an antibiotic. Pre-culture was performed in 16 × 150 mm borosilicate tubes with a medium inoculated with 2 × 10^5 trophozoites and incubated at 37 °C for 48 h. For the recovery of the trophozoites, the vial was incubated in ice for 8 min and centrifuged for 6 min at 2000 rpm. The concentrated trophozoites were suspended in 1 mL of phosphate-buffered saline (PBS), and the number of trophozoites was counted by placing a 1:1 volume ratio of cell culture and trypan blue dye (4 g/L); then, a homogeneous drop of the mixture was taken and placed in the Neubauer chamber, and the total cells were counted.
The curves were plotted for concentrations of 0–50 µM of each compound. The assay was performed by placing 1.5 × 10^5 cells in 1.5 mL microcentrifuge tubes with a supplemented medium and different concentrations of each compound (0–50 µM). The negative control was performed under the same conditions without a compound, and the drugs NTZ and MTZ were used as positive controls. The samples were incubated for 48 h at 37 °C. At the end of the incubation, the cell viability count was performed using the trypan blue technique. The viability calculation was performed following the formula nv/(nv + nm), where nv represents the live cells and nm represents the dead cells; the viability value obtained was expressed as a percentage. The IC50 value of each compound was determined using the IC50 Calculator software (https://www.aatbio.com/tools/ic50-calculator).

HT-29 cells [2] = test: Cytotoxicity, XTT viability assay, HT-29; details: for Selectivity index (CC50/IC50) HT-29: CC50 HT-29 / IC50 trophozoite ATCC strain 30957
Method: (§1) The cytotoxicity assay was performed to evaluate the effect of the selected compounds on human cells. Colon cells were used because they are cell lines like those present in the microenvironment where G. lamblia colonizes, which is the small intestine of the host. The assay was performed using the human cell lines Caco-2 (ATCC HTB-37) and HT-29 (ATCC […]). Cell viability was determined using the Cell Proliferation Kit II (XTT, St. Louis, MO, EE. UU.). A cell suspension of 2 × 10^3 cells/mL was prepared in Dulbecco’s modified Eagle’s medium (DMEM) supplemented with 10% inactivated fetal bovine serum and an antibiotic (1% penicillin/streptomycin, 5000 U/mL, in a volume of 100 µL). The suspension was added to a 96-well plate. The plates were incubated for 24 h at 37 °C in a 5% CO2 atmosphere. […] The cells were incubated for 48 h at 37 °C in a 5% CO2 atmosphere. Cell viability was determined using the following steps. The medium in each well was replaced with 100 µL of fresh medium, and 50 µL of XTT labeling mix was added per well. The reaction was incubated for four hours at 37 °C and 5% CO2. After incubation, the absorbance of the samples on the plate was measured at 450 nm. Each compound was assayed in triplicate in three independent experiments. CC50 values (μM) were determined using the nonlinear regression function of GraphPad Prism version 8 for Windows.

in vitro = details: human
Method: as §1

HT-29 cells [3] = test system: HT-29 cells; set-up: method as in PMID 38893461; details: cited from earlier work
Caco-2 cells = test system: Caco-2 cells; set-up: method as in PMID 38893461; details: cited from earlier work
[4] = test system: G. lamblia strain resistant to nitazoxanide; test: Giardicidal activity in nitazoxanide-resistant strain (trypan blue count); type: cell-based; details: Giardia duodenalis, 48 h, read-out: IC50 G. lamblia (NTZ Resistant)
Method: A pre-culture at confluence was used as a starting point, and a concentration–response curve was plotted using an initial compound concentration of 25 μM in a final volume of 1.5 mL of TYI-S-33 medium, followed by serial dilutions of the compound. Each treatment was inoculated with 1.5 × 10^5 trophozoites and incubated for 48 h at 37 °C. At the end of the incubation, the number of trophozoites was determined using the trypan blue assay and by counting in a Neubauer chamber. The viability percentage at each compound concentration was calculated using the negative control as a reference.

[5] = Cytotoxicity, XTT viability assay, HT-29; details: human, CC50 HT-29, 48 h, XTT
Method: as §1

Caco-2 and HT-29 cells = test: Cytotoxicity, XTT viability assay, stated for both cell lines; type: cell-based, human; details: 125 µM, 48 h
Method: The suspension was added to a 96-well plate. […] Cell viability was determined using the following steps.

[6] = test system: Giardia lamblia trophozoites (strain ATCC 30957) gene expression; test: Gene expression in trophozoites by RT-qPCR; type: cell-based; details: IC50 of each compound, 48 h
Method: To determine the alterations in the parasite’s metabolism and cellular processes induced by the compounds, the expression levels of various genes encoding metabolic, structural, and oxidative stress response proteins were evaluated. G. lamblia strain ATCC 30957 was grown by following previously established culture parameters.
The culture tube was incubated on ice for 15 min and then centrifuged at 2000 rpm for 6 min to concentrate the cell pellet. Cell counting was performed using the trypan blue method. A 500 µL volume of Trizol ® was added, and it was gently homogenized; then, 60 µL of chloroform was added, and it was homogenized for 10 s with a vortex and incubated on ice for 3 min. Afterward, it was centrifuged at 12,000 rpm for 10 min, the aqueous phase was transferred to a new tube, 200 µL of isopropanol was added, and it was incubated for 3 h on ice. The sample was then centrifuged for 10 min at 12,000 rpm, and the supernatant was discarded. A 600 µL volume of ethanol (70%) was added, homogenized, and centrifuged. In the end, the supernatant was removed, and the sample was centrifuged again to dry the excess alcohol. The pellet was dried. Finally, it was resuspended in 25 µL of sterile MilliQ water. The concentration and purity of the extracted RNA were determined using the NanoDrop® Spectrophotometer ND-1000 (NanoDrop Technologies, Wilmington, DE, USA). […] RNA purity and integrity were confirmed using 0.8% (w/v) agarose gels under denaturing conditions.
The synthesis of cDNA was carried out with […] of purified RNA, and 1 U of […] was added (Thermo Thermo Fisher Scientific, Waltham, MA, USA). First-strand cDNA synthesis was carried out using 1 μg of DNase-treated RNA, combined with a 10 mM dNTP mix, oligo(dT)18 primer, and RevertAid reverse transcriptase (Thermo Scientific) in a final reaction volume of 20 μL. The reaction mixture was incubated at 42 °C for 60 min, followed by heat inactivation at 70 °C for 10 min. The synthesized cDNA was stored at −20 °C until further use. The level of purity and concentration of the cDNA were determined using the NanoDrop® Spectrophotometer ND-1000 (NanoDrop Technologies, Wilmington, DE, USA).
Specific oligonucleotides were designed to determine the expression levels of the gene’s phosphofructokinase, pyruvate kinase, glucose-6-phosphate dehydrogenase::6-phosphogluconolactonase, 6-phosphogluconate dehydrogenase, and transketolase. The design was based on gene sequences available in the National Center for Biotechnology Information (NCBI) database, adhering to the following criteria: an oligonucleotide length of 18–20 bp, a melting temperature (Tm) of 61 °C, a GC content of approximately 40%, and an amplicon size between 80 and 200 bp (Table 4). The oligonucleotides were synthesized by the Sequencing and Synthesis Unit of the Institute of Biotechnology, UNAM.
Additionally, previously reported primers that were used for the gene expression analysis of G. lamblia were also obtained (Table 4). These primers target genes encoding surface structural protein, giardin, actin, pyruvate:ferredoxin oxidoreductase, pyruvate phosphate dikinase, NADH oxidase, triose phosphate isomerase, glyceraldehyde-3-phosphate dehydrogenase, and Aldolase.
Amplification was performed using a StepOne™ Real-Time PCR System and the Fast SYBR® Green Master Mix kit (Applied Biosystems, Foster City, CA, USA) under the following conditions: an initial denaturation at 95 °C for 30 s, followed by 40 cycles of 95 °C for 3 s and 60 °C for 30 s. The melt curve analysis was conducted post-amplification by gradually increasing the temperature from 60 °C to 95 °C. […] Normalization was performed using the geometric mean of cycle threshold (Ct) values, and the relative expression levels of the target genes were calculated using the 2^−ΔΔCt method. Each reaction was performed in five replicates for all analyzed genes and strains. Results are presented as mean values ± standard deviation (SD).

[7] = test system: G6PD::6PGL enzyme of G. lamblia; details: cited from earlier work
[8] = test system: Giardia lamblia (giardiasis); set-up: method as in PMID 11432808, PMID 34378955, PMID 32122530, PMID 37511272; details: cited from earlier work
[9] = Giardia duodenalis, ATCC30957, 48 h, trophozoites ATCC 30957, 48 h, 37 °C, read-out: IC50 G. lamblia
[10] = trophozoites ATCC 30957, 48 h, 37 °C, read-out: IC50 G. lamblia
[11] = ratio of IC50 values, ATCC strain

Structure (SMILES)	IC50 [1, 9] [µM]	IC50 [1, 10] [µM]	Selectivity index (CC50/IC50) HT-29 (HT-29 cells [2])	selectivity ratio at 48 h (in vitro; Caco-2)	CC50 (HT-29 cells [3]) [µM]	CC50 (Caco-2 cells) [µM]	Inhibition of growth of G. lamblia parasite culture [1]	IC50 [4] [µM]	CC50 at 48 h [5] [µM]	CC50 at 48 h (in vitro; Caco-2) [µM]	Decrease of cell viability (Caco-2 and HT-29 cells)	G6PD::6PGL gene expression vs control [6] [fold change]	GIA (giardin) gene expression, increase vs control [6]	NADHox gene expression, increase vs control [6]	PFK gene expression vs control [6]	PFOR gene expression vs control [6] [fold change]	PPDK gene expression vs control [6] [fold change]	TKT gene expression, increase vs control [6] [times]	Inhibition of the G6PD::6PGL enzyme (in words) [7]	TKT gene expression, decrease vs control [6] [times]	also measured
Cc1ncc([N+](=O)[O-])n1CCO [MTZ, metronidazole, reference compound]	4.3	3.4	161	160	550	545															
O=C(Nc1ccc([N+](=O)[O-])cc1)Nc1ncc([N+](=O)[O-])s1 [CNZ-7]			100	121			more than 98%	2.5	529	640	up to 20%	11.4	2.6 times	1.7 times	reduction	7.4	15.8	1.9	inhibitors of the G6PD enzyme		ACT (actin) gene expression, increase vs control [6]: 2.1 times
O=C(Nc1ncc([N+](=O)[O-])s1)c1cccc([N+](=O)[O-])c1 [FLP-8, 3-Nitro-N-(5-nitro-1,3-thiazol-2-yl)benzamide]			436	460			more than 98%	1.19	43.6	46	≤ 50%		did not show changes in expression	1.7 times	2.7 fold change				not inhibitors of the enzyme	1.7	Decrease of parasite viability ([1]; 25 µM): 100%; Relative potency compared with MTZ [1, 11]: 34 times; Relative potency compared with NTZ [1, 11]: 43 times; CC50 (HT-29 cells [2]; read-out: CC50 HT-29, 48 h, XTT): 43.7 µM; VSP gene expression, increase vs control [6]: 2.4 times
CC(=O)Oc1ccccc1C(=O)Nc1ncc([N+](=O)[O-])s1 [NTZ, nitazoxanide]			147	134	634	580		7.29				48.3	did not show changes in expression	lower	reduction	14		36.1			IC50 ([1]; Giardia duodenalis, ATCC30957, 48 h, read-out: IC50 G. lamblia, trophozoites ATCC 30957, 48 h, 37 °C): 3.4 µM; IC50 ([1]; read-out: IC50 G. lamblia, trophozoites ATCC 30957, 48 h, 37 °C): 4.3 µM; 6PGDH gene expression vs control [6]: differential overexpression; GAPDH gene expression vs control [6]: 17.2 fold change; Inhibition of GlG6PD::6PGL (in words) [7]: catalytic inhibitor; Efficacy in treatment of giardiasis [8]: 71%
CCCCOc1ccc(NC(=O)Nc2ncc([N+](=O)[O-])s2)cc1 [CNZ-8]	< 15	11.1	56	57			more than 98%	13.7			up to 20%	19.4	12.5 times	4.2 times	reduction		8.2		inhibitors of the G6PD enzyme	1.4	CC50 at 48 h ([5]; HT-29 cells): 622 µM; CC50 at 48 h (in vitro; Caco-2, CC50 Caco-2, 48 h, XTT): 633 µM

From publication PMC12111156, “Nitazoxanide Analogs: Synthesis, In Vitro Giardicidal Activity, and Effects on Giardia lamblia Metabolic Gene Expression” (International Journal of Molecular Sciences, 2025)
